Assay: xn = mol fraction of the nth substance listed
Conditions: 101 kPa, Liquid; for viscosity: Anton Paar Stabinger viscometer

COc1ccccc1 [anisole] + Cc1cccc(C)c1
Conditions | mass density [kg/m3] | speed of sound [m/s] | viscosity [mPa·s]
288.15 K, x1 = 0.1144 | 882.011 | 1369.2 | 0.696
288.15 K, x1 = 0.2566 | 899.519 | 1380.5 | 0.745
288.15 K, x1 = 0.3821 | 915.327 | 1390.9 | 0.799
288.15 K, x1 = 0.5034 | 930.924 | 1401 | 0.856
288.15 K, x1 = 0.6546 | 950.873 | 1414.1 | 0.933
288.15 K, x1 = 0.7535 | 964.193 | 1424 | 0.995
288.15 K, x1 = 0.8432 | 976.464 | 1432 | 1.049
288.15 K, x1 = 0.9133 | 986.213 | 1439.3 | 1.103
288.15 K, x1 = 0.9576 | 992.455 | 1445.2 | 1.149
288.15 K, x1 = 1 | 998.44 | 1449.1 | 1.188
293.15 K, x1 = 0.1144 | 877.742 | 1351 | 0.645
293.15 K, x1 = 0.2566 | 895.185 | 1362.2 | 0.688
293.15 K, x1 = 0.3821 | 910.905 | 1372.1 | 0.734
293.15 K, x1 = 0.5034 | 926.441 | 1381.4 | 0.783
293.15 K, x1 = 0.6546 | 946.321 | 1393.9 | 0.851
293.15 K, x1 = 0.7535 | 959.605 | 1402.8 | 0.908
293.15 K, x1 = 0.8432 | 971.843 | 1411.1 | 0.958
293.15 K, x1 = 0.9133 | 981.575 | 1418.4 | 1.008
293.15 K, x1 = 0.9576 | 987.755 | 1423.6 | 1.051
293.15 K, x1 = 1 | 993.651 | 1428.5 | 1.084
298.15 K, x1 = 0.1144 | 873.473 | 1328.5 | 0.607
298.15 K, x1 = 0.2566 | 890.874 | 1339.2 | 0.647
298.15 K, x1 = 0.3821 | 906.561 | 1349.8 | 0.687
298.15 K, x1 = 0.5034 | 922.056 | 1360.1 | 0.734
298.15 K, x1 = 0.6546 | 941.9 | 1373.5 | 0.798
298.15 K, x1 = 0.7535 | 955.192 | 1382.5 | 0.852
298.15 K, x1 = 0.8432 | 967.423 | 1391 | 0.899
298.15 K, x1 = 0.9133 | 977.136 | 1398.1 | 0.947
298.15 K, x1 = 0.9576 | 983.283 | 1403.1 | 0.988
298.15 K, x1 = 1 | 989.15 | 1408 | 1.017
303.15 K, x1 = 0.1144 | 869.172 | 1308 | 0.574
303.15 K, x1 = 0.2566 | 886.499 | 1318.7 | 0.604
303.15 K, x1 = 0.3821 | 902.126 | 1328.8 | 0.639
303.15 K, x1 = 0.5034 | 917.578 | 1339.1 | 0.677
303.15 K, x1 = 0.6546 | 937.368 | 1352.6 | 0.733
303.15 K, x1 = 0.7535 | 950.619 | 1362 | 0.782
303.15 K, x1 = 0.8432 | 962.844 | 1371 | 0.824
303.15 K, x1 = 0.9133 | 972.502 | 1378.3 | 0.868
303.15 K, x1 = 0.9576 | 978.641 | 1383.1 | 0.905
303.15 K, x1 = 1 | 984.372 | 1387.7 | 0.931

COc1ccccc1 [anisole] + Cc1ccccc1
Conditions | mass density [kg/m3] | speed of sound [m/s] | viscosity [mPa·s]
288.15 K, x1 = 0.1152 | 886.478 | 1360.7 | 0.676
288.15 K, x1 = 0.2132 | 899.203 | 1369.9 | 0.725
288.15 K, x1 = 0.3098 | 911.684 | 1379.1 | 0.77
288.15 K, x1 = 0.4182 | 925.577 | 1389.6 | 0.832
288.15 K, x1 = 0.5267 | 939.392 | 1400.4 | 0.891
288.15 K, x1 = 0.6209 | 951.306 | 1410 | 0.94
288.15 K, x1 = 0.7382 | 966.034 | 1421.9 | 1.014
288.15 K, x1 = 0.8645 | 981.766 | 1434.9 | 1.094
288.15 K, x1 = 0.927 | 989.474 | 1441.5 | 1.138
288.15 K, x1 = 1 | 998.441 | 1449.1 | 1.188
293.15 K, x1 = 0.1152 | 881.927 | 1339.1 | 0.628
293.15 K, x1 = 0.2132 | 894.629 | 1347.9 | 0.671
293.15 K, x1 = 0.3098 | 907.078 | 1357.9 | 0.71
293.15 K, x1 = 0.4182 | 920.94 | 1367.2 | 0.765
293.15 K, x1 = 0.5267 | 934.732 | 1377.6 | 0.818
293.15 K, x1 = 0.6209 | 946.626 | 1387.6 | 0.861
293.15 K, x1 = 0.7382 | 961.327 | 1398.7 | 0.927
293.15 K, x1 = 0.8645 | 977.029 | 1412.5 | 0.999
293.15 K, x1 = 0.927 | 984.734 | 1418.9 | 1.039
293.15 K, x1 = 1 | 993.653 | 1428.5 | 1.084
298.15 K, x1 = 0.1152 | 877.272 | 1316.5 | 0.594
298.15 K, x1 = 0.2132 | 889.988 | 1325.8 | 0.634
298.15 K, x1 = 0.3098 | 902.448 | 1335 | 0.67
298.15 K, x1 = 0.4182 | – | 1345.3 | 0.721
298.15 K, x1 = 0.5267 | 930.133 | 1356.5 | 0.769
298.15 K, x1 = 0.6209 | 942.044 | 1366.3 | 0.809
298.15 K, x1 = 0.7382 | 956.777 | 1378.8 | 0.871
298.15 K, x1 = 0.8645 | 972.508 | 1392.7 | 0.94
298.15 K, x1 = 0.927 | 980.221 | 1399.6 | 0.977
298.15 K, x1 = 1 | 989.15 | 1408 | 1.017
303.15 K, x1 = 0.1152 | 872.541 | 1295.1 | 0.557
303.15 K, x1 = 0.2132 | 885.247 | 1304.8 | 0.592
303.15 K, x1 = 0.3098 | 897.698 | 1314.4 | 0.623
303.15 K, x1 = 0.4182 | 911.571 | 1325.3 | 0.667
303.15 K, x1 = 0.5267 | 925.369 | 1336.5 | 0.709
303.15 K, x1 = 0.6209 | 937.281 | 1346.4 | 0.745
303.15 K, x1 = 0.7382 | 952.012 | 1358.8 | 0.802
303.15 K, x1 = 0.8645 | 967.753 | 1372.5 | 0.862
303.15 K, x1 = 0.927 | 975.465 | 1379.4 | 0.895
303.15 K, x1 = 1 | 984.374 | 1387.7 | 0.931

COc1ccccc1 [anisole] + Cc1ccccc1C
Conditions | mass density [kg/m3] | speed of sound [m/s] | viscosity [mPa·s]
288.15 K, x1 = 0.0915 | 893.348 | 1395 | 0.885
288.15 K, x1 = 0.198 | 905.888 | 1402.3 | 0.914
288.15 K, x1 = 0.368 | 924.439 | 1409 | 0.944
288.15 K, x1 = 0.4954 | 938.936 | 1415.7 | 0.979
288.15 K, x1 = 0.6554 | 957.421 | 1424.7 | 1.028
288.15 K, x1 = 0.766 | 970.279 | 1431.2 | 1.066
288.15 K, x1 = 0.868 | 982.607 | 1439.4 | 1.133
288.15 K, x1 = 0.916 | 988.769 | 1444.5 | 1.159
288.15 K, x1 = 0.949 | 992.756 | 1447.1 | 1.172
288.15 K, x1 = 1 | 998.44 | 1449.1 | 1.188
293.15 K, x1 = 0.0915 | 889.076 | 1374.4 | 0.821
293.15 K, x1 = 0.198 | 900.83 | 1381.7 | 0.844
293.15 K, x1 = 0.368 | 919.973 | 1388.3 | 0.868
293.15 K, x1 = 0.4954 | 934.513 | 1394.9 | 0.899
293.15 K, x1 = 0.6554 | 953.102 | 1403.9 | 0.942
293.15 K, x1 = 0.766 | 966.072 | 1410.4 | 0.975
293.15 K, x1 = 0.868 | 978.09 | 1418.6 | 1.035
293.15 K, x1 = 0.916 | 983.748 | 1424 | 1.058
293.15 K, x1 = 0.949 | 987.635 | 1426.6 | 1.072
293.15 K, x1 = 1 | 993.649 | 1428.5 | 1.084
298.15 K, x1 = 0.0915 | 885.509 | 1354 | 0.769
298.15 K, x1 = 0.198 | 897.159 | 1359.5 | 0.79
298.15 K, x1 = 0.368 | 916.136 | 1368.6 | 0.813
298.15 K, x1 = 0.4954 | 930.569 | 1375.7 | 0.841
298.15 K, x1 = 0.6554 | 948.998 | 1385.1 | 0.881
298.15 K, x1 = 0.766 | 961.882 | 1391.9 | 0.914
298.15 K, x1 = 0.868 | 973.792 | 1398.6 | 0.974
298.15 K, x1 = 0.916 | 979.418 | 1402 | 0.996
298.15 K, x1 = 0.949 | 983.27 | 1404.3 | 1.005
298.15 K, x1 = 1 | 989.104 | 1408 | 1.017
303.15 K, x1 = 0.0915 | 880.756 | 1333.4 | 0.718
303.15 K, x1 = 0.198 | 892.435 | 1339.3 | 0.735
303.15 K, x1 = 0.368 | 911.407 | 1348.8 | 0.753
303.15 K, x1 = 0.4954 | 925.824 | 1355.9 | 0.776
303.15 K, x1 = 0.6554 | 944.269 | 1365.2 | 0.811
303.15 K, x1 = 0.766 | 957.177 | 1371.8 | 0.84
303.15 K, x1 = 0.868 | 969.125 | 1378.1 | 0.893
303.15 K, x1 = 0.916 | 974.761 | 1381.2 | 0.912
303.15 K, x1 = 0.949 | 978.63 | 1383.3 | 0.922
303.15 K, x1 = 1 | 984.372 | 1386.7 | 0.931

Source: the NIST ThermoML archive (doi:10.1021/je060170c)
